Measured values reported in ChEMBL document CHEMBL1143248, “Adenosine analogues as inhibitors of P2Y12 receptor mediated platelet aggregation” (Bioorg Med Chem Lett, 2008).

Target: not listed separately
Experiment: Antagonist activity at P2Y12 receptor assessed as platelet aggregation by washed platelet assay

Compound | IC50 [nM]
CCNC(=O)Nc1ncnc2c1ncn2[C@@H]1O[C@H](COP(=O)(O)O)[C@H]2O[C@H](/C=C/c3ccccc3)O[C@H]21 [REGRELOR DISODIUM] | 16

Target: P2Y purinoceptor 12 (Homo sapiens) (UniProt Q9H244)
Experiment: Antagonist activity at P2Y12 receptor assessed as platelet aggregation at 30 uM by washed platelet assay
Format: functional

Chain of P2Y purinoceptor 12 (Homo sapiens) (Q9H244 whole entry): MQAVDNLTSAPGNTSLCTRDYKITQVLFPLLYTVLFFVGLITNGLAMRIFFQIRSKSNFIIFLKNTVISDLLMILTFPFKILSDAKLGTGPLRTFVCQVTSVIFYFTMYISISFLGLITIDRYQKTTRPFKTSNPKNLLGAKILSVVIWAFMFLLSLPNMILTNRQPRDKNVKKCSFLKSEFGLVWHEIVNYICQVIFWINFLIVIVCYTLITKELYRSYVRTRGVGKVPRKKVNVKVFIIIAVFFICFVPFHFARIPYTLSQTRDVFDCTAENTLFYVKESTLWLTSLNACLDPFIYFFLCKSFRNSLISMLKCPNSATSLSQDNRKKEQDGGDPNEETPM

Compound | inhibition [%]
CCNC(=O)Nc1ncnc2c1ncn2[C@@H]1O[C@H](CS(=O)(=O)CCO)[C@H]2O[C@H](/C=C/c3ccccc3)O[C@H]21 | 57
CCNC(=O)Nc1ncnc2c1ncn2[C@@H]1O[C@H](CNCc2nccs2)[C@H]2O[C@H](/C=C/c3ccccc3)O[C@H]21 | 73
CCCS(=O)(=O)C[C@H]1O[C@@H](n2cnc3c(NC(=O)NCC)ncnc32)[C@@H]2O[C@@H](/C=C/c3ccccc3)O[C@@H]21 | 65
CCNC(=O)Nc1ncnc2c1ncn2[C@@H]1O[C@H](CS(=O)(=O)CC(O)CO)[C@H]2O[C@H](/C=C/c3ccccc3)O[C@H]21 (stereo not given in full) | 14
CCNC(=O)Nc1ncnc2c1ncn2[C@@H]1O[C@H](CNC(=O)c2[nH]c(C)c(C(C)=O)c2C)[C@H]2O[C@H](/C=C/c3ccccc3)O[C@H]21 | 53
CCNC(=O)Nc1ncnc2c1ncn2[C@@H]1O[C@H](CNC/C(C)=C/C(=O)OCC)[C@H]2O[C@H](/C=C/c3ccccc3)O[C@H]21 | 70
CCNC(=O)Nc1ncnc2c1ncn2[C@@H]1O[C@H](CNCc2ccccc2O)[C@H]2O[C@H](/C=C/c3ccccc3)O[C@H]21 | 70
CCNC(=O)Nc1ncnc2c1ncn2[C@@H]1O[C@H](CN(CC2CC2C(=O)OCC)CC2CC2C(=O)OCC)[C@H]2O[C@H](/C=C/c3ccccc3)O[C@H]21 (stereo not given in full) | 46

Further lines, results first:

inhibition [%] | Compound
52 | CCCSC[C@H]1O[C@@H](n2cnc3c(NC(=O)NCC)ncnc32)[C@@H]2O[C@@H](/C=C/c3ccccc3)O[C@@H]21
90 | CCNC(=O)Nc1ncnc2c1ncn2[C@@H]1O[C@H](CSCCCS(=O)(=O)O)[C@H]2O[C@H](/C=C/c3ccccc3)O[C@H]21
76 | CCNC(=O)Nc1ncnc2c1ncn2[C@@H]1O[C@H](CSCC(C)O)[C@H]2O[C@H](/C=C/c3ccccc3)O[C@H]21 (stereo not given in full)
38 | CCCCCCCSC[C@H]1O[C@@H](n2cnc3c(NC(=O)NCC)ncnc32)[C@@H]2O[C@@H](/C=C/c3ccccc3)O[C@@H]21
63 | CCNC(=O)Nc1ncnc2c1ncn2[C@@H]1O[C@H](CSC)[C@H]2O[C@H](/C=C/c3ccccc3)O[C@H]21
63 | CCNC(=O)Nc1ncnc2c1ncn2[C@@H]1O[C@H](CSCCO)[C@H]2O[C@H](/C=C/c3ccccc3)O[C@H]21
